In PMC5786788, “Antimicrobial Octapeptin C4 Analogues Active against Cryptococcus Species” (Antimicrobial Agents and Chemotherapy, 2018):
Where two headings read alike, the source gives them in different places. Where a SMILES comes first, the peptide text is derived from it. Bridges are numbered along the chain shown (N, C = ends). [ ]: non-standard residue; d: D form. The star is where a group is joined. Decanoyl(3R-OH) = CCCCCCC[C@@H](O)CC(=O)*; dDab = NCC[C@@H](N)C(=O)O; Dab = NCC[C@H](N)C(=O)O

Legend:
[1] = test system: C. neoformans H99 (cap59Δ); assay type: cell-based, Cryptococcus neoformans; conditions: Table 2; triplicate, values consistent across replicates
Excerpt: The different susceptibility of C. neoformans and C. gattii to PMB compared to other pathogenic fungi such as C. albicans and A. fumigatus has been postulated to arise from differences in cell surface composition ([38]). One key difference is the presence of a negatively charged polysaccharide capsule in Cryptococcus spp. proposed to concentrate the cationic lipopeptides at the cell surface ([38]). To examine this potential interaction for the octapeptin series, a C. neoformans cap59Δ mutant strain deficient in the secretion of negatively charged glucuronoxylomannan (an α1–3-linked mannan containing β1,2 and β1,4 xylosyl substitutions, as well as β1,2-linked glucuronyl residues) ([41], [42]), was tested against octapeptin C4 in comparison to PMB.
(§1) Fungal strains were stored in 15% glycerol at −80°C until use. The fungal strains used were H99 (C. neoformans type strain) ([55]), cap59Δ (an acapsular H99 mutant) ([56]), ATCC 90113 (C. neoformans), MMRL 2651 (C. gattii), ATCC 90028 (Candida albicans), ATCC 90030 (Candida glabrata), ATCC 22019 (Candida parapsilosis), and ATCC MYA 3626 (Aspergillus fumigatus). Yeasts were cultured in liquid (1% yeast extract, 2% Bacto peptone, 2% glucose) or solid (additional 2% agar) yeast extract-peptone-dextrose (YPD) media at 30°C and maintained at 4°C for no longer than 2 weeks. A. fumigatus was prepared on potato dextrose medium at 30°C and maintained at 4°C for no longer than 2 weeks.
(§2) The MICs of the yeast strains for PMB, PME, and octapeptin C4 and its derivatives were determined in accordance with CLSI M27-A2 guidelines using YNB (Becton Dickinson, USA) medium supplemented with 10 mM ammonium sulfate and 2% glucose, a final inoculum concentration of 1.5 × 10^3 to 2.0 × 10^3 cells/ml, and incubation at 35°C for 72 h ([39]). […] The MICs for PMB, PME, and octapeptin C4 for A. fumigatus were determined in accordance with the CLSI M38-A2 guidelines ([40]) using synthetic RPMI 1640 medium (with glutamine, without bicarbonate and with phenol red; Life Technologies, USA). The final inoculum concentration was 0.4 × 10^4 to 5 × 10^4 cells/ml, with incubation at 35°C for 48 h. […] All assays were completed in triplicate. Fluconazole was used as a positive control where the MIC was determined at both 50% growth (in accordance with CLSI M27-A2 guidelines) and when there was a “no visible growth” reading.

C. gattii MMRL 2651 = test system: C. gattii MMRL 2651
Method: (§3) A broth microdilution assay was initially used to characterize the antifungal activity of the cyclic lipopeptides ([39], [40]). […] common pathogenic yeasts (C. albicans, C. glabrata, C. parapsilosis, C. neoformans, and C. gattii) and one pathogenic mold (A. fumigatus) were tested to determine the MIC for each compound (Table 1) using broth microdilution. […] The only structural difference between these molecules is the presence of a phenylalanine residue at position 6 in PMB; in PME a D-leucine is present at this location (Fig. 1).
as §1, §2

C. neoformans ATCC 90113 = conditions: ATCC 90113, 72 h
Method: as §3, §1, §2

C. neoformans H99 = conditions: H99, 72 h
Method: as §3, §1, §2

Compound | MICs against various Cryptococcus strains: H99 (cap59Δ) [1] | MICs against various Cryptococcus strains: MMRL 2651 (C. gattii MMRL 2651; 72 h) | MICs against various Cryptococcus strains: ATCC 90113 (C. neoformans ATCC 90113) | MICs against various Cryptococcus strains: H99 (C. neoformans H99) | MICs against various Cryptococcus strains: MMRL 2651 (C. gattii MMRL 2651; Table 2, C. gattii, triplicate, values consistent across replicates)
CCCCCCC[C@@H](O)CC(=O)N[C@H](CCN)C(=O)N[C@H]1CCNC(=O)[C@H](CC(C)C)NC(=O)[C@H](CCN)NC(=O)[C@H](CCN)NC(=O)[C@H](CC(C)C)NC(=O)[C@H](C)NC(=O)[C@H](CCN)NC1=O [Compound P4L] ({Decanoyl(3R-OH)}-[dDab][Dab][Dab]AL[Dab][Dab]L; lactam 2-C) | 100.0 µg/mL | 100 µg/mL | 25.0 µg/mL | 50.0 µg/mL | –
CCCCCCC[C@@H](O)CC(=O)N[C@H](CCN)C(=O)N[C@H]1CCNC(=O)[C@H](CC(C)C)NC(=O)[C@H](CCN)NC(=O)[C@H](CCN)NC(=O)[C@H](CC(C)C)NC(=O)[C@@H](Cc2ccccc2)NC(=O)[C@H](C)NC1=O [Compound P3] ({Decanoyl(3R-OH)}-[dDab][Dab]A[dF]L[Dab][Dab]L; lactam 2-C) | 12.5 µg/mL | – | 6.25 µg/mL | 6.25 µg/mL | 12.5 µg/mL
CCCCCCC[C@@H](O)CC(=O)N[C@H](CCN)C(=O)N[C@H]1CCNC(=O)[C@H](CC(C)C)NC(=O)[C@H](CCN)NC(=O)[C@H](C)NC(=O)[C@H](CC(C)C)NC(=O)[C@@H](Cc2ccccc2)NC(=O)[C@H](CCN)NC1=O [Compound P6] ({Decanoyl(3R-OH)}-[dDab][Dab][Dab][dF]LA[Dab]L; lactam 2-C) | 12.5 µg/mL | 6.25 µg/mL | 6.25 µg/mL | 6.25 µg/mL | –
